ChEMBL document CHEMBL1201862, “PubChem BioAssay data set” (2004)
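Five concentrations, 48 hours, 96-well plates. GI50 = concentration required for 50% inhibition of growth.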 The source made the active and inactive calls. Rule as the data show it: active = GI50 up to about 1.1 µM and inactive = higher.

Experiments:
Assay in all cases: NCI anticancer screen, dose series, 48 h
KM12 = test system: KM12
HOP-62 = test system: HOP-62
CCRF-CEM = test system: CCRF-CEM
LXFL 529 = test system: LXFL 529
SK-MEL-5 = test system: SK-MEL-5
ACHN = test system: ACHN
IGROV-1 = test system: IGROV-1
SK-MEL-2 = test system: SK-MEL-2
SF-295 = test system: SF-295
MOLT-4 = test system: MOLT-4
SN12C = test system: SN12C
SK-OV-3 = test system: SK-OV-3
SF-539 = test system: SF-539
RXF 393 = test system: RXF 393
EKVX = test system: EKVX
M14 = test system: M14
CAKI-1 = test system: CAKI-1

Measured: GI50

COc1ccc(O)c2c(=O)ccccc12
inactive: KM12 > 100 µM | HOP-62 > 100 µM | CCRF-CEM > 100 µM | LXFL 529 > 100 µM | SK-MEL-5 > 100 µM | ACHN > 100 µM | IGROV-1 > 100 µM | SK-MEL-2 > 100 µM | SF-295 > 100 µM | MOLT-4 > 100 µM | SN12C > 100 µM | SK-OV-3 > 100 µM | SF-539 > 100 µM | RXF 393 4.79 µM | EKVX > 100 µM | M14 > 100 µM

N#CCc1nc2c(s1)C(=O)c1ccccc1C2=O
inactive: KM12 18.5 µM | HOP-62 15 µM | CAKI-1 22.2 µM | LXFL 529 15 µM | SK-MEL-5 11.4 µM | ACHN 14.1 µM | IGROV-1 3.76 µM | SK-MEL-2 17.3 µM | SF-295 19.4 µM | MOLT-4 1.22 µM | SN12C 18.8 µM | SK-OV-3 > 100 µM | SF-539 14.8 µM | RXF 393 30.6 µM | EKVX 14.4 µM | M14 15.2 µM

COc1ccc(/C=N/N=C(\N)NO)c(OC)c1
inactive: KM12 30.3 µM | HOP-62 16.2 µM | CAKI-1 19.2 µM | CCRF-CEM 79.8 µM | LXFL 529 8.81 µM | SK-MEL-5 59.8 µM | ACHN 21 µM | IGROV-1 > 100 µM | SK-MEL-2 52.4 µM | SF-295 16.1 µM | MOLT-4 77.6 µM | SN12C 67.8 µM | SK-OV-3 75.2 µM | SF-539 23.3 µM | RXF 393 54 µM | EKVX 38.3 µM

CCN(CC)CC(C(=O)Nc1c(C)cccc1C)/C(C)=N\NC(=S)NN (stereo not given)
inactive: KM12 > 100 µM | HOP-62 > 100 µM | CCRF-CEM > 100 µM | LXFL 529 > 100 µM | SK-MEL-5 > 100 µM | ACHN > 100 µM | IGROV-1 > 100 µM | SK-MEL-2 > 100 µM | SF-295 > 100 µM | MOLT-4 > 100 µM | SK-OV-3 > 100 µM | SF-539 > 100 µM | RXF 393 > 100 µM | EKVX > 100 µM | M14 > 100 µM

COc1cc(/C=C\c2ccncc2)cc(OC)c1OC
inactive: KM12 48.1 µM | HOP-62 > 100 µM | CAKI-1 80 µM | CCRF-CEM > 100 µM | LXFL 529 67.6 µM | SK-MEL-5 57.5 µM | ACHN > 100 µM | IGROV-1 > 100 µM | SF-295 54.3 µM | MOLT-4 59.4 µM | SN12C > 100 µM | SF-539 > 100 µM | RXF 393 > 100 µM | EKVX 70.8 µM | M14 42.9 µM

CC1=CP(=O)(c2ccccc2)C=C(C)C1=C(Cl)Cl (stereo not given)
inactive: KM12 3.37 µM | HOP-62 3.26 µM | CCRF-CEM 3.93 µM | LXFL 529 3.27 µM | SK-MEL-5 4.67 µM | IGROV-1 17.3 µM | SF-295 5.38 µM | MOLT-4 3.91 µM | SN12C 15.6 µM | SK-OV-3 29.4 µM | SF-539 5.24 µM | RXF 393 16.9 µM | M14 4.99 µM

O=C1C2Nc3ccccc3SC2C(=O)N1c1ccc(Br)cc1 (stereo not given)
inactive: KM12 28.2 µM | HOP-62 17.1 µM | CCRF-CEM > 10 µM | LXFL 529 20.7 µM | SK-MEL-5 16.2 µM | ACHN 17.6 µM | IGROV-1 53.1 µM | SK-MEL-2 17.7 µM | SF-295 26.6 µM | MOLT-4 25.4 µM | SN12C 35.9 µM | SK-OV-3 15.6 µM | SF-539 26.4 µM | RXF 393 18.2 µM | EKVX 23.4 µM | M14 33.5 µM

CC1(C)COC(C2(C)C(=O)C=C(c3ccccc3)c3ccccc32)=N1 (stereo not given)
inactive: KM12 47.3 µM | HOP-62 64.9 µM | CAKI-1 42.6 µM | CCRF-CEM 35.5 µM | LXFL 529 41.3 µM | SK-MEL-5 > 100 µM | ACHN 34.9 µM | IGROV-1 47.5 µM | SK-MEL-2 37.3 µM | SF-295 37.9 µM | MOLT-4 25.8 µM | SN12C 30.5 µM | SK-OV-3 22.4 µM | SF-539 43.6 µM | RXF 393 55.3 µM | EKVX 45.4 µM | M14 46.1 µM

CC(C)(C)C(=O)C(c1ccc(-c2cscn2)cc1)c1ccc(-c2cscn2)cc1
inactive: KM12 > 83.9 µM | HOP-62 18.5 µM | CAKI-1 33.4 µM | CCRF-CEM > 100 µM | LXFL 529 39.7 µM | SK-MEL-5 38.1 µM | ACHN 32 µM | IGROV-1 37.8 µM | SK-MEL-2 21.4 µM | SF-295 18.1 µM | MOLT-4 > 100 µM | SN12C 34.7 µM | SK-OV-3 29.8 µM | SF-539 23.6 µM | RXF 393 18.8 µM | EKVX 33.3 µM | M14 97.5 µM

NC(CCSCC(F)F)C(=O)O (stereo not given)
inactive: KM12 > 100 µM | HOP-62 > 100 µM | CAKI-1 > 100 µM | CCRF-CEM > 100 µM | LXFL 529 > 100 µM | SK-MEL-5 > 100 µM | ACHN > 100 µM | IGROV-1 > 100 µM | SF-295 > 100 µM | MOLT-4 > 100 µM | SN12C > 100 µM | SF-539 > 100 µM | RXF 393 > 100 µM | EKVX > 100 µM | M14 > 100 µM

Nc1ncnc2c1ncn2C1(CO)OC(CO)C(O)C1O (stereo not given)
inactive: KM12 > 100 µM | HOP-62 > 100 µM | CAKI-1 > 100 µM | CCRF-CEM > 100 µM | LXFL 529 > 100 µM | SK-MEL-5 > 100 µM | ACHN > 100 µM | SK-MEL-2 > 100 µM | SF-295 > 100 µM | MOLT-4 > 100 µM | SN12C > 100 µM | SK-OV-3 > 100 µM | RXF 393 > 100 µM | M14 > 100 µM

COc1cc2c(cc1OC)-c1c(cc(OC)c(OC)c1OC)C2=O
inactive: KM12 > 100 µM | HOP-62 25.9 µM | CCRF-CEM 81.7 µM | LXFL 529 > 100 µM | SK-MEL-5 77.1 µM | ACHN > 100 µM | IGROV-1 > 100 µM | SF-295 > 100 µM | MOLT-4 > 100 µM | SN12C > 100 µM | SK-OV-3 93.3 µM | SF-539 > 100 µM | RXF 393 > 100 µM | EKVX > 100 µM | M14 > 100 µM

CC1CCCc2c1c1ccc3c(O)cccc3c1oc2=O (stereo not given)
inactive: KM12 > 100 µM | HOP-62 18.7 µM | CAKI-1 39.4 µM | CCRF-CEM 67.1 µM | LXFL 529 48.8 µM | ACHN 19.7 µM | IGROV-1 39.6 µM | SK-MEL-2 28.9 µM | SF-295 14.8 µM | MOLT-4 > 100 µM | SN12C 43 µM | SK-OV-3 20.7 µM | RXF 393 18.8 µM | EKVX 2.05 µM | M14 > 100 µM
